Reference: patent publication US11091490B2, “3-amino-1,5-dihydro-pyrazolo[3,4-d]pyrimidin-4-ones as cyclin dependent kinase inhibitors” (Oncotyrol Center for Personalized Cancer Medicine GMBH, priority 2016, dated 2021)
Values joined by “and” are separate entries in the source; they are usually repeats but may differ in a detail not shown here. Identical values can stand only once. Like-named read-outs stand apart in the source and are kept apart here.

Key:
RPMI-8226/GN1 = assay: Multiple myeloma cells in mono- and co-culture with osteoblasts, imaging based detection (RPMI-8226); assay type: cell-based
Description: (§1) Compound 86 has been compared with the key compound of WO 2000/21926 A2 (Example 121) in an imaging based detection system.
(§2) Two different multiple myeloma (MM) cell lines (RPMI-8226 (DSMZ, ACC 402), NCI-H929 DSMZ, ACC 163) have been used and were cultured in mono- and co-culture with osteoblasts (OB) (Osteoblasts were obtained by culturing hMSCs with a differentiation inducing medium for two weeks) in accordance with the method of Karadag A. et al. Journal of Bone and Mineral Research Vol. 15, No. 10, 2000 page 1935-43.

NCI-H929/GN2 = assay: Multiple myeloma cells in mono- and co-culture with osteoblasts, imaging based detection (NCI-H929); assay type: cell-based
Description: as §1, §2

SMILES: CC(C)c1nn(-c2c(Cl)cc(Cl)cc2Cl)c2nc(Cc3ccc(NC(=O)C4CN(C)CCN4C)cc3)[nH]c(=O)c12 (centres unmarked) [Reference compound, reference compound]
- EC50 (RPMI-8226/GN1; Homo sapiens, RPMI-8226, RPMI-8226/GN1, co-culture with osteoblasts, read-out: co-culture (+ OB) EC50): 420 nM
- EC50 (RPMI-8226/GN1; Homo sapiens, RPMI-8226, RPMI-8226/GN1, mono-culture, read-out: mono-culture EC50): 120 nM
- EC50 (RPMI-8226/GN1; RPMI-8226/GN1, co-culture with osteoblasts, read-out: co-culture (+ OB) EC50): 520 nM and 650 nM
- EC50 (RPMI-8226/GN1; RPMI-8226/GN1, mono-culture, read-out: mono-culture EC50): 200 nM and 210 nM
- EC50 (NCI-H929/GN2; Homo sapiens, NCI-H929, NCI-H929/GN2, co-culture with osteoblasts, read-out: co-culture (+ OB) EC50): 160 nM
- EC50 (NCI-H929/GN2; Homo sapiens, NCI-H929, NCI-H929/GN2, mono-culture, read-out: mono-culture EC50): 50 nM
- EC50 (NCI-H929/GN2; NCI-H929/GN2, co-culture with osteoblasts, read-out: co-culture (+ OB) EC50): 150 nM
- EC50 (NCI-H929/GN2; NCI-H929/GN2, mono-culture, read-out: mono-culture EC50): 65 nM
